Legend:
[1] = system: Bacillus subtilis ATCC 6633; assay: MIC against standard strains (Test Example 1); type: cell-based; settings: ATCC6633, Muller-Hinton agar, 37°C overnight
Procedure: (§1) By using each test strain cultured overnight at 37°C in a Muller-Hinton broth, there was prepared a bacterial solution with a bacterial cell population of 1 x 10^6 CFU/mi of the same bouillon. The bacterial solution was inoculated into the Muller-Hinton agar media each containing respectively one test agent and, after overnight incubation at 37°C, the minimum concentration that inhibited growth of the bacteria was determined and shown as MIC also in Table 1.
(§2) Staphylococcus aureus 167 and Staphylococcus aureus 195 used in the test were MRSA. CTM (cefotiam) and FMOX (flomoxef) were used as control agents.

[2] = system: Citrobacter freundii ATCC 8090; assay: MIC against standard strains (Test Example 1); type: cell-based; settings: ATCC8090, Muller-Hinton agar, 37°C overnight
Procedure: as §1, §2

[3] = system: Enterobacter cloacae ATCC 13407; assay: MIC against standard strains (Test Example 1); type: cell-based; settings: ATCC13407, Muller-Hinton agar, 37°C overnight
Procedure: as §1, §2

[4] = system: Escherichia coli CSH2 (RE45); assay: MIC against standard strains (Test Example 1); type: cell-based
Procedure: as §1, §2

[5] = system: Escherichia coli CSH2 (RK1); assay: MIC against standard strains (Test Example 1); type: cell-based
Procedure: as §1, §2

[6] = system: Escherichia coli NIHJ JC-2; assay: MIC against standard strains (Test Example 1); type: cell-based; settings: NIHJJC2, Muller-Hinton agar, 37°C overnight
Procedure: as §1, §2

[7] = system: Klebsiella pneumoniae IFO 3317; assay: MIC against standard strains (Test Example 1); type: cell-based; settings: IFO3317, Muller-Hinton agar, 37°C overnight
Procedure: as §1, §2

[8] = system: Klebsiella pneumoniae No. 42; assay: MIC against standard strains (Test Example 1); type: cell-based; settings: Muller-Hinton agar, 37°C overnight
Procedure: as §1, §2

[9] = system: Micrococcus luteus ATCC 9341; assay: MIC against standard strains (Test Example 1); type: cell-based; settings: ATCC9341, Muller-Hinton agar, 37°C overnight
Procedure: as §1, §2

[10] = system: Morganella morganii IFO 3848; assay: MIC against standard strains (Test Example 1); type: cell-based; settings: IFO3848, Muller-Hinton agar, 37°C overnight
Procedure: as §1, §2

[11] = system: Proteus mirabilis IFO 3849; assay: MIC against standard strains (Test Example 1); type: cell-based; settings: IFO3849, Muller-Hinton agar, 37°C overnight
Procedure: as §1, §2

[12] = system: Proteus vulgalis OX-19; assay: MIC against standard strains (Test Example 1); type: cell-based; settings: Muller-Hinton agar, 37°C overnight
Procedure: as §1, §2

[13] = system: Pseudomonas aeruginosa NCTC 10490; assay: MIC against standard strains (Test Example 1); type: cell-based; settings: NCTC10490, Muller-Hinton agar, 37°C overnight
Procedure: as §1, §2

[14] = system: Psuedomonas aeruginosa IFO 3445; assay: MIC against standard strains (Test Example 1); type: cell-based; settings: Muller-Hinton agar, 37°C overnight
Procedure: as §1, §2

[15] = system: Serratia marcescens IAM 1184; assay: MIC against standard strains (Test Example 1); type: cell-based; settings: IAM1184, Muller-Hinton agar, 37°C overnight
Procedure: as §1, §2

[16] = system: Staphylococcus aureus 167; assay: MIC against standard strains (Test Example 1); type: cell-based; settings: Staphylococcus aureus 167 (MRSA); Muller-Hinton agar, 37°C overnight
Procedure: as §1, §2

[17] = system: Staphylococcus aureus 195; assay: MIC against standard strains (Test Example 1); type: cell-based; settings: Staphylococcus aureus 195 (MRSA); Muller-Hinton agar, 37°C overnight
Procedure: as §1, §2

[18] = system: Staphylococcus aureus 209P JC-1; assay: MIC against standard strains (Test Example 1); type: cell-based; settings: Muller-Hinton agar, 37°C overnight
Procedure: as §1, §2

[19] = system: Staphylococcus aureus Smith; assay: MIC against standard strains (Test Example 1); type: cell-based; settings: Muller-Hinton agar, 37°C overnight
Procedure: as §1, §2

[20] = system: Staphylococcus epidermidis IAM 1296; assay: MIC against standard strains (Test Example 1); type: cell-based; settings: IAM1296, Muller-Hinton agar, 37°C overnight
Procedure: as §1, §2

[21] = system: clinically isolated MRSA; assay: Antibacterial potency against clinically isolated MRSA (Test Example 2); type: cell-based, methicillin-resistant Staphylococcus aureus; settings: Staphylococcus aureus, 52 strains of clinically isolated MRSA
Procedure: A test on the antibacterial potency against clinically isolated MRSA was conducted in the following way.
52 strains of clinically isolated MRSA were used, and MIC was determined for each of the strains according to the standard method of the Japan Chemotherapical Society as in Test Example 1. The minimum growth inhibitory concentration which inhibited growth of 50% of the strains tested was expressed as MIC50 (µg/ml), and the minimum growth inhibitory concentration which inhibited growth of 90% of the strains was expressed as MIC90 (µg/ml).
In this test, FMOX (flomoxef), IPM/CS (imipenem/cilastatin), CMZ (cefmetazole), MINO (minocycline) and DMPPC (methicillin) were used as control agents.

[22] = system: A. calcoaceticos T59; assay: MIC against standard strains (Test Example 3); type: cell-based; settings: A. calcoaceticos T59 (Test Example 3); read-out: MIC
Procedure: as §1
(§3) The minimum growth inhibitory concentration was determined for each of the 21 standard strains shown in Table 3, according to the same method as used in Test Example 1.
(§4) In the test, FMOX (flomoxef), CTM (cefotiam) and CEZ (cefazolin) were used as control agents.

[23] = system: A. faecalis ATCC3750; assay: MIC against standard strains (Test Example 3); type: cell-based; settings: Alcaligenes faecalis; A. faecalis ATCC3750 (Test Example 3); read-out: MIC
Procedure: as §1, §3, §4

[24] = system: B. subtilis ATCC6633; assay: MIC against standard strains (Test Example 3); type: cell-based; settings: Bacillus subtilis; B. subtilis ATCC6633 (Test Example 3); read-out: MIC
Procedure: as §1, §3, §4

[25] = system: C. freundii ATCC8090; assay: MIC against standard strains (Test Example 3); type: cell-based; settings: Citrobacter freundii; C. freundii ATCC8090 (Test Example 3); read-out: MIC
Procedure: as §1, §3, §4

[26] = system: E. cloacae ATCC13407; assay: MIC against standard strains (Test Example 3); type: cell-based; settings: Enterobacter cloacae; E. cloacae ATCC13407 (Test Example 3); read-out: MIC
Procedure: as §1, §3, §4

[27] = system: E. coli CSH2 (RE45); assay: MIC against standard strains (Test Example 3); type: cell-based; settings: Escherichia coli
Procedure: as §1, §3, §4

[28] = system: E. coli CSH2 (RK1); assay: MIC against standard strains (Test Example 3); type: cell-based; settings: Escherichia coli
Procedure: as §1, §3, §4

[29] = system: E. coli NIHJ JC-2; assay: MIC against standard strains (Test Example 3); type: cell-based; settings: Escherichia coli, NIHJJC2; E. coli NIHJ JC-2 (Test Example 3); read-out: MIC
Procedure: as §1, §3, §4

[30] = system: K. pneumoniae IFO3317; assay: MIC against standard strains (Test Example 3); type: cell-based; settings: Klebsiella pneumoniae; K. pneumoniae IFO3317 (Test Example 3); read-out: MIC
Procedure: as §1, §3, §4

[31] = system: K. pneumoniae No. 42; assay: MIC against standard strains (Test Example 3); type: cell-based; settings: Klebsiella pneumoniae; K. pneumoniae No. 42 (Test Example 3); read-out: MIC
Procedure: as §1, §3, §4

[32] = system: M. Morganii IFO3848; assay: MIC against standard strains (Test Example 3); type: cell-based; settings: Morganella morganii; M. Morganii IFO3848 (Test Example 3); read-out: MIC
Procedure: as §1, §3, §4

[33] = system: M. luteus ATCC 9341; assay: MIC against standard strains (Test Example 3); type: cell-based; settings: Micrococcus luteus, ATCC9341; M. luteus ATCC 9341 (Test Example 3); read-out: MIC
Procedure: as §1, §3, §4

[34] = system: P. aeruginosa NCTC10490; assay: MIC against standard strains (Test Example 3); type: cell-based; settings: Pseudomonas aeruginosa; P. aeruginosa NCTC10490 (Test Example 3); read-out: MIC
Procedure: as §1, §3, §4

[35] = system: P. mirabilis IFO3849; assay: MIC against standard strains (Test Example 3); type: cell-based; settings: Proteus mirabilis; P. mirabilis IFO3849 (Test Example 3); read-out: MIC
Procedure: as §1, §3, §4

[36] = system: P. vulugaris OX-19; assay: MIC against standard strains (Test Example 3); type: cell-based; settings: P. vulugaris OX-19 (Test Example 3); read-out: MIC
Procedure: as §1, §3, §4

[37] = system: S. aureus 167; assay: MIC against standard strains (Test Example 3); type: cell-based; settings: Staphylococcus aureus; S. aureus 167 (MRSA) (Test Example 3); read-out: MIC
Procedure: as §1, §3, §4

[38] = system: S. aureus 195; assay: MIC against standard strains (Test Example 3); type: cell-based; settings: Staphylococcus aureus; S. aureus 195 (MRSA) (Test Example 3); read-out: MIC
Procedure: as §1, §3, §4

[39] = system: S. aureus 209p JC-1; assay: MIC against standard strains (Test Example 3); type: cell-based; settings: Staphylococcus aureus; S. aureus 209p JC-1 (Test Example 3); read-out: MIC
Procedure: as §1, §3, §4

[40] = system: S. aureus Smith; assay: MIC against standard strains (Test Example 3); type: cell-based; settings: Staphylococcus aureus; S. aureus Smith (Test Example 3); read-out: MIC
Procedure: as §1, §3, §4

[41] = system: S. epidemidis IAM1296; assay: MIC against standard strains (Test Example 3); type: cell-based; settings: S. epidemidis IAM1296 (Test Example 3); read-out: MIC
Procedure: as §1, §3, §4

[42] = system: S. marcescens IAM1184; assay: MIC against standard strains (Test Example 3); type: cell-based; settings: Serratia marcescens; S. marcescens IAM1184 (Test Example 3); read-out: MIC
Procedure: as §1, §3, §4

Nc1nc(/C(=N/O)C(=O)N[C@@H]2C(=O)N3C(C(=O)[O-])=C(C[n+]4ccc(-c5csc(N)n5)cc4)CS[C@H]23)cs1 [Compound (5), 7β-[2-(2-aminothiazol-4-yl)-2-syn-hydroxyiminoacetamido]-3-[[4-(2-aminothiazol-4-yl)-1-pyridi-i-nio]methyl]-3-cephem-4-carboxylic acid chloride]
8.69 µg/mL: MIC90 ([21]; concentration inhibiting growth of 90% of the strains (Test Example 2))
3.13 µg/mL: MIC [17] | MIC50 ([21]; concentration inhibiting growth of 50% of the strains (Test Example 2))
0.025 µg/mL: MIC [9]
0.1 µg/mL: MIC [8] | MIC [11] | MIC [20]
6.25 µg/mL: MIC [16]
0.05 µg/mL: MIC [4] | MIC [7] | MIC [10]
0.78 µg/mL: MIC [3]
25 µg/mL: MIC [14]
0.2 µg/mL: MIC [1] | MIC [2] | MIC [5] | MIC [6] | MIC [12] | MIC [15] | MIC [18] | MIC [19]
1.56 µg/mL: MIC [13]

CN(C)CCn1nnnc1SCC1=C(C(=O)O)N2C(=O)[C@@H](NC(=O)Cc3csc(N)n3)[C@H]2SC1 [CTM, cefotiam, reference compound]
> 100 µg/mL: MIC [13] | MIC [14] | MIC [16] | MIC [17] | MIC [34] | MIC [38]
1.56 µg/mL: MIC [23] | MIC [42]
3.13 µg/mL: MIC [15] | MIC [26]
0.78 µg/mL: MIC [2] | MIC [25]
100 µg/mL: MIC [22] | MIC [37]
0.1 µg/mL: MIC [6] | MIC [7] | MIC [10] | MIC [27] | MIC [28] | MIC [29] | MIC [32]
0.05 µg/mL: MIC [30]
0.2 µg/mL: MIC [1] | MIC [4] | MIC [5] | MIC [18] | MIC [20] | MIC [24] | MIC [41]
50 µg/mL: MIC [3]
0.39 µg/mL: MIC [8] | MIC [9] | MIC [11] | MIC [12] | MIC [19] | MIC [31] | MIC [33] | MIC [35] | MIC [36] | MIC [39] | MIC [40]
